Source: ChEMBL document CHEMBL6092182, “Enhanced Plasma Stability and Potency of Aryl/Acyloxy Prodrugs of a BTN3A1 Ligand” (ACS Med Chem Lett, 2024)

Legend:
[1] = Stimulation of IL-2-treated human Vgamma9Vdelta2 T cell proliferation incubated for 72 hrs followed by compound washout measured after 11 days by flow cytometry; format: functional, cell-based
[2] = Stimulation of IL-2-treated human Vgamma9Vdelta2 T cell proliferation assessed as IFN-gamma release pretreated human […] cells with compound for 1 hr followed by compound washout and addition of washed K562 cells to medium containing Vgamma9Vdelta2 T cells measured after 20 hrs by ELISA; format: functional, cell-based
[3] = Stability in human plasma assessed as compound remaining at 100 uM measured after 2 hrs by MS analysis; format: ADME, cell-free; details: for Stability: 2 h, 100 µM
[4] = Stability in human plasma assessed as half life at 100 uM by LCMS analysis; format: ADME, cell-free
[5] = Prodrug conversion in human plasma assessed as formation of Ac-monoanion metabolite by measuring metabolite peak intensity at 100 uM incubated for 1 hr by LCMS analysis; format: ADME, cell-free
[6] = Prodrug conversion in human plasma assessed as formation of mono-anion metabolite by measuring metabolite peak intensity at 100 uM incubated for 1 hr by LCMS analysis; format: ADME, cell-free
[7] = Prodrug conversion in human plasma assessed as formation of di-anion metabolite by measuring metabolite peak intensity at 100 uM incubated for 1 hr by LCMS analysis; format: ADME, cell-free; design: unit not given here
[8] = Prodrug conversion in human K562 cells assessed as formation of Ac-monoanion metabolite by measuring metabolite peak intensity at 100 uM incubated for 1 hr by LCMS analysis; format: functional
[9] = Prodrug conversion in human K562 cells assessed as formation of mono-anion metabolite by measuring metabolite peak intensity at 100 uM incubated for 1 hr by LCMS analysis; format: functional
[10] = Prodrug conversion in human K562 cells assessed as formation of di-anion metabolite by measuring metabolite peak intensity at 100 uM incubated for 1 hr by LCMS analysis; format: functional
[11] = Stability in mouse plasma assessed as compound remaining measured after 2 hrs by MS analysis; format: ADME, cell-free
[12] = Stability in rat plasma assessed as compound remaining measured after 2 hrs by MS analysis; format: ADME, cell-free
[13] = Stability in mouse plasma assessed as half life measured after 2 hrs by MS analysis; format: ADME, cell-free

| Structure (SMILES) | EC50 [1] [nM] | EC50 [2] [nM] | Stability [3] [%] | t1/2 [4] [min] | Activity [5] | Activity [6] | Activity [7] | Activity [8] | Activity [9] | Activity [10] | Stability [11] | Stability [12] [%] | t1/2 [13] [min] | remaining at 2 h, 100 µM ([3]; read-out: Stability) [%] |
| --- | --- | --- | --- | --- | --- | --- | --- | --- | --- | --- | --- | --- | --- | --- |
| CC(=O)OC/C(C)=C/CCP(=O)(OCOC(=O)c1ccccc1)Oc1ccc(C(C)C)cc1 (stereo unspecified) | 0.27 | 2.6 | 34 | 66 | 12000 | 300 | 0 | 180 | 8800 | 870 | Stable | – | – | – |
| COc1ccc(C(=O)OCOP(=O)(CC/C=C(\C)COC(C)=O)Oc2ccc(C(C)C)cc2)cc1 (stereo unspecified) | 0.84 | 4.1 | 62 | 180 | 3500 | 830 | 0 | 18 | 3900 | 360 | Stable | – | – | – |
| CC(=O)OC/C(C)=C/CCP(=O)(OCOC(=O)CC1CCOCC1)Oc1ccc(C(C)C)cc1 (stereo unspecified) | 0.44 | 3.5 | 28 | 42 | 6100 | 3000 | 0 | 49 | 6300 | 1000 | Stable | – | – | – |
| CC(=O)OC/C(C)=C/CCP(=O)(OCOC(=O)CC1CCOCC1)Oc1cccc2ccccc12 (stereo unspecified) | 0.66 | 5.4 | 7 | 15 | 2900 | 2800 | 0 | 4 | 3000 | 880 | Stable | – | – | – |
| C/C(=C\CCP(=O)(OCOC(=O)CC1CCOCC1)Oc1ccc(C(C)C)cc1)CO (stereo unspecified) | 0.53 | 2.2 | 0 | – | – | 16000 | 0 | – | 6600 | 640 | Stable | – | – | – |
| C/C(=C\CCP(=O)(OCOC(=O)CC1CCCCC1)Oc1ccc(C(C)C)cc1)CO (stereo unspecified) | 1.1 | 2.8 | 80 | 94 | – | 4500 | 0 | – | 4800 | 500 | Stable | – | – | – |
| C/C(=C\CCP(=O)(OCOC(=O)CC1CCOCC1)Oc1cccc2ccccc12)CO (stereo unspecified) | 0.37 | 4.8 | 0 | 5.9 | – | 11000 | 0 | – | 3200 | 690 | Stable | 65 | 5.6 | – |
| C/C(=C\CCP(=O)(OCOC(=O)C1CCCCC1)Oc1ccccc1)CO (stereo unspecified) | – | – | – | – | – | – | – | – | – | – | – | – | – | 0 |
| COc1ccc(C(=O)OCOP(=O)(CC/C=C(\C)CO)Oc2ccc(C(C)C)cc2)cc1 (stereo unspecified) | 1.5 | 6.4 | 71 | 500 | – | 5900 | 0 | – | 6000 | 590 | Stable | – | – | – |
| CC(=O)OC/C(C)=C/CCP(=O)(OCOC(=O)CC1CCCCC1)Oc1ccc(C(C)C)cc1 (stereo unspecified) | 0.54 | 3 | 90 | 750 | 2400 | 330 | 0 | 54 | 3900 | 410 | Stable | – | – | – |
| C/C(=C\CCP(=O)(OCOC(=O)c1ccccc1)Oc1ccc(C(C)C)cc1)CO (stereo unspecified) | 0.43 | 7 | 13 | – | – | 7900 | 0 | – | 10000 | 830 | Stable | – | – | – |
| CC(=O)OC/C(C)=C/CCP(=O)(OCOC(=O)C1CCOCC1)Oc1ccc(C(C)C)cc1 (stereo unspecified) | 1.2 | 2.2 | 0 | 16 | 9900 | 3200 | 0 | 67 | 8200 | 1700 | Stable | – | – | – |
| C/C(=C\CCP(=O)(OCOC(=O)C1CCOCC1)Oc1ccc(C(C)C)cc1)CO (stereo unspecified) | 0.97 | 0.89 | 0 | 11 | – | 13000 | 0 | – | 18000 | 1500 | Stable | – | – | – |
